The source of these data is patent US8946225B2, “Derivatives of 2H pyridazin-3-ones, their preparation and their use as SCD-1 inhibitors” (Pierre Fabre Medicament, priority 2009, dated 2015).

The pIC50 is −log10 of the IC50, conventionally taken in molar units. As a reminder, the melting point is the temperature of the solid-liquid transition.

One series deals with T1, SCD-1 (Homo sapiens, UniProt O00767).
T1 construct: addition of 125 μg of microsomal fraction of HepG2 cells; host or cells: HepG2 human hepatocarcinoma cells (microsomal fraction)
T1 sequence (O00767 1-359): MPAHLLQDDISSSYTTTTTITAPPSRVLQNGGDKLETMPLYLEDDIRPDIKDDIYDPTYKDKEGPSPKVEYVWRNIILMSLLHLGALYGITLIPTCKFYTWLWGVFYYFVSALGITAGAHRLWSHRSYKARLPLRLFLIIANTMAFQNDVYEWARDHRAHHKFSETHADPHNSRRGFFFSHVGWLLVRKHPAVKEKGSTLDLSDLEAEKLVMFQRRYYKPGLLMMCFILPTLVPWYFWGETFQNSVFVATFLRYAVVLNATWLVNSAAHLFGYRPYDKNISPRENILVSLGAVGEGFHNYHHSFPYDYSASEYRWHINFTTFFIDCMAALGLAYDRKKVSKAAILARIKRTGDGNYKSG
The experiment in a line: Human enzymatic activity of SCD-1 from microsomes of HepG2 cells (conversion of [14C] stearic acid to oleic acid, HPLC). The series is classed as biochemical. The following applies: microsomal fraction of HepG2 cells, 62 μM stearic acid, 20 minutes at 37° C., vs vehicle 0.1% DMSO; read-out: HSCD-1 (HEPG2) IC50. As for the experimental part: In vitro: Human enzymatic activity of SCD-1 from microsomes of HepG2 cells after treatment with the inhibitor compounds (% inhibition).
HepG2 cells of human hepatocarcinoma (ATCC, HB-8065) are cultured at confluence then trypsinated. The cell residue is solubilized in 10 mM Tris buffer (pH 7.4) sucrose (250 mM) DTT (1 mM) then the cells are lysed by sonication. The microsomes are obtained after centrifuging at 10,000 g for 20 minutes at 4° C. followed by centifrugation of the supernatant at 100,000 g for 60 minutes at 4° C. The residue is solubilized in 10 mM Tris buffer (pH 7.4) sucrose (250 mM) at 4° C. and the microsomal proteins are assayed and stored at −196° C. (liquid nitrogen).
The enzymatic reaction measures the conversion of stearic acid (C18:0 fatty acid) into oleic acid (C18:1 fatty acid) by SCD-1. The enzymatic reaction is initiated by the addition of 125 μg of microsomal fraction of HepG2 cells to tubes (total reaction volume of 500 μl) containing 62 μM stearic acid (45 μM stearic acid and 17 μM [^14C] stearic acid) in 100 mM phosphate buffer (pH 7.16) with 7.2 mM ATP, 0.54 mM CoA, 6 mM MgCl2, 0.8 mM NADH and the inhibitor compound or vehicle (0.1% DMSO). The tubes are incubated for 20 minutes at 37° C. then the enzymatic reaction is halted by the addition of KOH (12%) and saponification for 30 minutes at 80° C. After acidification (3N HCl), the fatty acids are extracted twice with ethyl ether, evaporated under nitrogen before being solubilized in methanol/dichloromethane (3:1). The reaction product (C18:1) is separated from the reaction substrate (C18:0) by HPLC (Perkin Elmer, C18 reverse phase column) coupled with an in-line radioactivity detector (FlowOne). Enzymatic activity is measured in picomoles of stearic acid converted to oleic acid per minute and per mg of protein. For each inhibitor compound, an IC50 value is determined, compared with the reference enzymatic activity (vehicle 0.1% DMSO). Sterculic acid is the reference inhibitor compound (Gomez F. E., Bauman D. E., Ntambi J. M., Fox B. G. Effects of sterculic acid on stearoyl-CoA desaturase in differentiating […] adipocytes. Biochem Biophys Res Commun. 300 316-326 (2003).

pIC50: −log10 of the molar value.

Consider `Cn1nccc(/C=C/C(=O)N2CCC(Oc3cc(C(F)(F)F)ccc3Cl)CC2)c1=O` [Example 36, 4-{(E)-3-[4-(2-Chloro-5-trifluoromethyl-phenoxy)-piperidin-1-yl]-3-oxo-propenyl}-2-methyl-2H-pyridazin-3-one], for which the melting point was found to be 154 °C. The pIC50 at SCD-1 was 6.00 to 6.52.
On to `O=C(CNc1ccn[nH]c1=O)N1CCC(Oc2cc(C(F)(F)F)ccc2Cl)CC1` [Example 40, 4-{2-[4-(2-Chloro-5-trifluoromethyl-phenoxy)-piperidin-1-yl]-2-oxo-ethylamino}-2H-pyridazin-3-one], for which the melting point came to 222 °C. Moreover, the negative logarithm of the IC50 (pIC50) at SCD-1 is 7.00 to 8.00.
The corresponding values for `COc1cnn(C)c(=O)c1NCC(=O)N1CCC(Oc2cc(C(F)(F)F)ccc2Cl)CC1` [Example 51, 4-{2-[4-(2-Chloro-5-trifluoromethyl-phenoxy)-piperidin-1-yl]-2-oxo-ethylamino}-5-methoxy-2-methyl-2H-pyridazin-3-one] are 60 °C and 6.00 to 7.00.
The corresponding values for `Cn1nccc(NC(=O)N2CCC(Oc3cc(C(F)(F)F)ccc3Cl)CC2)c1=O` [Example 52, 4-(2-Chloro-5-trifluoromethyl-phenoxy)-piperidine-1-carboxylic acid (2-methyl-3-oxo-2,3-dihydro-pyridazin-4-yl)-amide] are 148 °C and 7.00 to 7.52.
As to `Cn1nccc(NC(=O)N2CCC(Oc3cc(F)ccc3Cl)CC2)c1=O` [Example 53, 4-(2-Chloro-5-fluoro-phenoxy)-piperidine-1-carboxylic acid (2-methyl-3-oxo-2,3-dihydro-pyridazin-4-yl)-amide], the melting point worked out at 116 °C. In addition, the negative-log IC50 (pIC50) on SCD-1 was 7.00 to 7.52.
The matching figures for `Cn1nccc(NC(=O)N2CCC(Oc3cc(C(F)(F)F)ccc3F)CC2)c1=O` [Example 54, 4-(2-fluoro-5-trifluoromethyl-phenoxy)-piperidine-1-carboxylic acid (2-methyl-3-oxo-2,3-dihydro-pyridazin-4-yl)-amide]: 102 °C and 7.00 to 7.52.
The matching figures for `Cc1ccc(C)c(OC2CCN(C(=O)Nc3ccnn(C)c3=O)CC2)c1` [Example 55, 4-(2,5-dimethyl-phenoxy)-piperidine-1-carboxylic acid (2-methyl-3-oxo-2,3-dihydro-pyridazin-4-yl)-amide]: 108 °C and 6.00 to 7.00.
In the case of `Cc1ccc(Cl)c(OC2CCN(C(=O)Nc3ccnn(C)c3=O)CC2)c1` [Example 56, 4-(2-chloro-5-methyl-phenoxy)-piperidine-1-carboxylic acid (2-methyl-3-oxo-2,3-dihydro-pyridazin-4-yl)-amide], the melting point amounted to 133 °C. In addition, the negative logarithm of the IC50 (pIC50) on SCD-1 is 6.00 to 7.00.
The matching figures for `Cc1ccc(C(C)C)cc1OC1CCN(C(=O)Nc2ccnn(C)c2=O)CC1` [Example 57, 4-(2-methyl-5-isopropyl-phenoxy)-pipéridine-1-carboxylic acid (2-methyl-3-oxo-2,3-dihydro-pyridazin-4-yl)-amide]: 104 °C and 7.00 to 8.00.
The matching figures for `Cn1nccc(NC(=O)N2CCC(Oc3cccc(C(F)(F)F)c3)CC2)c1=O` [Example 58, 4-(5-trifluoromethyl-phenoxy)-piperidine-1-carboxylic acid (2-methyl-3-oxo-2,3-dihydro-pyridazin-4-yl)-amide]: 101 °C and 7.00 to 8.00.
The corresponding values for `Cc1ccccc1OC1CCN(C(=O)Nc2ccnn(C)c2=O)CC1` [Example 59, 4-(2-methyl-phenoxy)-piperidine-1-carboxylic acid (2-methyl-3-oxo-2,3-dihydro-pyridazin-4-yl)-amide] are 124 °C and about 6.00.
In turn, `Cn1nccc(NC(=O)N2CCC(Oc3ccc(F)c(C(F)(F)F)c3)CC2)c1=O` [Example 60, 4-(4-fluoro-5-trifluoromethyl-phenoxy)-piperidine-1-carboxylic acid (2-methyl-3-oxo-2,3-dihydro-pyridazin-4-yl)-amide] had a melting point of 127 °C. For the same compound, the negative-log IC50 (pIC50) on SCD-1 was 6.00 to 7.00.
The compound `Cn1nccc(NC(=O)N2CCC(Oc3cc(F)ccc3C(F)(F)F)CC2)c1=O` [Example 61, 4-(5-fluoro-2-trifluoromethyl-phenoxy)-piperidine-1-carboxylic acid (2-methyl-3-oxo-2,3-dihydro-pyridazin-4-yl)-amide] came in with a melting point of 145 °C. Moreover, the negative-log IC50 (pIC50) on SCD-1 is 7.00 to 8.00.
The matching figures for `Cn1nccc(NC(=O)N2CCC(Oc3cc(Cl)ccc3Cl)CC2)c1=O` [Example 62, 4-(2,5-dichloro-phenoxy)-piperidine-1-carboxylic acid (2-methyl-3-oxo-2,3-dihydro-pyridazin-4-yl)-amide]: 125 °C and 7.52.
The matching figures for `Cn1nccc(NC(=O)N2CCC(Oc3cc(Br)ccc3Cl)CC2)c1=O` [Example 63, 4-(2-chloro-5-bromo-phenoxy)-piperidine-1-carboxylic acid (2-methyl-3-oxo-2,3-dihydro-pyridazin-4-yl)-amide]: 124 °C and 7.52.
`Cn1nccc(NC(=O)N2CCC(Oc3ccccc3Cl)CC2)c1=O` [Example 64, 4-(2-chloro-phenoxy)-piperidine-1-carboxylic acid (2-methyl-3-oxo-2,3-dihydro-pyridazin-4-yl)-amide]: the melting point turned out to be 124 °C. Besides, on SCD-1, the pIC50 is 6.00 to 6.52.
The corresponding values for `Cn1nccc(NC(=O)N2CCC(Oc3ccc(Cl)c(Cl)c3)CC2)c1=O` [Example 65, 4-(3,4-dichloro-phenoxy)-piperidine-1-carboxylic acid (2-methyl-3-oxo-2,3-dihydro-pyridazin-4-yl)-amide] are 154 °C and 6.00.
In the case of `Cn1nccc(NC(=O)N2CCC(Oc3ccc(Cl)cc3Cl)CC2)c1=O` [Example 66, 4-(2,4-dichloro-phenoxy)-piperidine-1-carboxylic acid (2-methyl-3-oxo-2,3-dihydro-pyridazin-4-yl)-amide], the melting point was found to be 140 °C. Moreover, the negative-log IC50 (pIC50) at SCD-1 is 6.00 to 7.00.
The matching figures for `Cn1nccc(NC(=O)N2CCC(Oc3cc(F)cc(C(F)(F)F)c3)CC2)c1=O` [Example 67, 4-(3-fluoro-5-trifluoromethyl-phenoxy)-piperidine-1-carboxylic acid (2-methyl-3-oxo-2,3-dihydro-pyridazin-4-yl)-amide]: 115 °C and 6.52.
The matching figures for `Cc1ccc(F)cc1OC1CCN(C(=O)Nc2ccnn(C)c2=O)CC1` [Example 68, 4-(5-fluoro-2-methyl-phenoxy)-piperidine-1-carboxylic acid (2-methyl-3-oxo-2,3-dihydro-pyridazin-4-yl)-amide]: 142 °C and 6.00 to 7.00.
The corresponding values for `Cn1nccc(NC(=O)N2CCC(Oc3cc(F)ccc3F)CC2)c1=O` [Example 69, 4-(2,5-difluoro-phenoxy)-piperidine-1-carboxylic acid (2-methyl-3-oxo-2,3-dihydro-pyridazin-4-yl)-amide] are 138 °C and 6.00 to 7.00.
Turning to `Cn1nccc(NC(=O)N2CCC(Oc3cc(Cl)c(Cl)cc3Cl)CC2)c1=O` [Example 70, 4-(2,4,5-trichloro-phenoxy)-piperidine-1-carboxylic acid (2-methyl-3-oxo-2,3-dihydro-pyridazin-4-yl)-amide], the melting point turned out to be 154 °C. Besides, at SCD-1, the pIC50 is 6.00 to 7.00.
The corresponding values for `Cn1nccc(NC(=O)N2CCC(Oc3cc(F)c(F)cc3Br)CC2)c1=O` [Example 71, 4-(2-bromo-4,5-difluoro-phenoxy)-piperidine-1-carboxylic acid (2-methyl-3-oxo-2,3-dihydro-pyridazin-4-yl)-amide] are 143 °C and 7.00 to 8.00.
